# Source: patent US7867979B2, “Drug composition for treating 2 type diabetes and diabetic chronicity complications” (Hainan Deze Drug Research Co., Ltd., priority 2006, dated 2011)
# Tests used:
# Type in all cases: in vivo, Goto-Kakizaki rats (GK)
# diabetic GK rats = assay: Blood glucose and lipid in GK rats; settings: different ratio experiment; GK rats, high fat diet, oral daily 12 weeks, total 20 mg/kg per Table 3
# From the text: The GK (Goto-Kakizaki) rat is the spontaneous model of diabetes, the pathogenesis of GK rat is very similar to the pathogenesis of type 2 diabetes. After diabetes attack, hyperglycemia and insulin secretion weakened emerge rapidly, the latter diseases may be complicated by retinopathy, micro-vascular disease, neuropathy, nephropathy in GK rat. The GK rats have been widely used in type 2 diabetes study, so we choose GK rat as the animal model of the following experiment. […] Then they can be mixed or diluted in accordance with the dose and the ratio. 1.3 Goto-Kakizaki rats (GK) (4 months age, ♀♂) and Wistar rats (SPF level, ♀♂) were purchased from Shanghai SLAC laboratory animal Co., Ltd. In addition to the normal rats, the other rats were fed with high fat diet (20% protein and 3.5% cholesterol). After the rats was feeding adaptation for one week, The GK rats which the blood glucose level was more than 11.1 mmol/L were selected, and then divided into the following groups random: GK rats control group (n=10); mangiferin groups (10, 30, 200 mg/kg, each group 10 rats); berberine groups (10, 20, 150 mg/kg, each group 10 rats); composition group 1[[mangiferin (10 mg/kg)+berberine (10 mg/kg)], 10 rats]; composition group 2[[mangiferin (200 mg/kg)+berberine (150 mg/kg)], 10 rats]. Wistar rats are normal control group (10 rats). GK rats control group and Wistar rats group were given saline. The other groups were given test drugs. Test samples were administrated orally at the same time every day for 12 weeks. 3.1 Blood Glucose and lipid: The blood specimens were taken at the end of the test. Plasma glucose (GLU), triglycerides (TG), total cholesterol (TC) were determined by HITACHI7080 automatic biochemistry analyzer. […] The results have been calculated as mean±SD ( x±SD) and the comparisons of the data have been done by t-test. […] Mangiferin and berberine are prepared in accordance with the method of preparation of example 1 and 2. Then they can be mixed in accordance with the dose and the ratio such as table 3. 1.2 Animal: Goto-Kakizaki rats (GK) (4 months age, ♀♂) and Wistar rats (SPF level, ♀♂) were purchased from Shanghai SLAC laboratory animal Co., Ltd. In addition to the normal rats, the other rats were fed with high fat diet (20% protein and 3.5% cholesterol). After the rats was feeding adaptation for one week, GK rats that the blood glucose level of the GK rats was more than 11.1 mmol/L were selected, and then random divided into the following groups as follows (Table 3): There are ten rats in every group. GK rats control group and wistar rats group were given saline. The other groups were given test drugs. Test samples were administrated orally at the same time every day for 12 weeks. The measurements are as same as the above experiment.
# aldose reductase (AR) = biological target: T1, aldose reductase (AR) (Rattus norvegicus, UniProt P07943); assay: Activity of aldose reductase (AR) of lens in GK rats; settings: different ratio experiment, oral daily 12 weeks, specific activity, in U/mg protein; for AR activity of lens NADH (0.1 mmol/L): total 20 mg/kg per Table 3, NADH 0.1 mmol/L system; for AR activity of lens NADPH (0.1 mmol/L): total 20 mg/kg per Table 3, NADPH 0.1 mmol/L system
# T1 construct: from tissue; host or cells: lens of GK (Goto-Kakizaki) and Wistar rats
# Method: GK rats control group (n=10); mangiferin groups (10, 30, 200 mg/kg, each group 10 rats); berberine groups (10, 20, 150 mg/kg, each group 10 rats); composition group 1[[mangiferin (10 mg/kg)+berberine (10 mg/kg)], 10 rats]; composition group 2[[mangiferin (200 mg/kg)+berberine (150 mg/kg)], 10 rats]. Wistar rats are normal control group (10 rats). GK rats control group and Wistar rats group were given saline. The other groups were given test drugs. Test samples were administrated orally at the same time every day for 12 weeks. […] At the End of the experiment, the left side lens of rats was taken, then these lenses were added into glycerol and put into refrigerator (−80° C.□) to preserve to determine AR activity. The determination method of AR activity refer to Maragoudakis's method and change slightly, that is: the activity of enzyme is indicated by the record of the absorbance of NADPH in 340 nm decline IOU. […] The second reaction system is 0.1 mmol/L NADH instead of NADPH, the rest of the reagent is same as one of the first response system. The activity of enzyme and the protein content in tissue homogenate are determined at the same time. a unit enzyme activity is indicated by the quantity of the enzyme that produce 1 μmol NADP^+ (or NDA^+) in one minute. […] The results have been calculated as mean±SD ( x±SD) and the comparisons of the data have been done by t-test. There are ten rats in every group. GK rats control group and wistar rats group were given saline. The other groups were given test drugs. Test samples were administrated orally at the same time every day for 12 weeks. The measurements are as same as the above experiment.
# [1] = tested on: Superoxidedismutase (SOD); assay: Superoxidedismutase (SOD) in kidney tissue homogenate of GK rats; settings: different ratio experiment, oral daily 12 weeks, total 20 mg/kg per Table 3
# Method: GK rats control group (n=10); mangiferin groups (10, 30, 200 mg/kg, each group 10 rats); berberine groups (10, 20, 150 mg/kg, each group 10 rats); composition group 1[[mangiferin (10 mg/kg)+berberine (10 mg/kg)], 10 rats]; composition group 2[[mangiferin (200 mg/kg)+berberine (150 mg/kg)], 10 rats]. Wistar rats are normal control group (10 rats). GK rats control group and Wistar rats group were given saline. The other groups were given test drugs. Test samples were administrated orally at the same time every day for 12 weeks. 3.3.1 Preparation of tissue homogenate: Rats were killed by femoral artery bloodletting after administration of the rats for 12-weeks. Kidney tissue of the rats were taken, the blood of kidney tissue were washed with cooling saline (4° C.), then the remnant water was absorbed with filter paper, the kidney tissue was weighed. Per gram kidney tissue was added into 10 ml saline, which was put in homogenized machine (10,000 r/min, 10 seconds, 3rd), 10% tissue homogenate was prepared, the tissue homogenate was centrifuged (4000 r/min) for 10 minutes to get supernatant, the supernatant was saved in −20° C. for determination. […] SOD is determined by Xanthine Oxidase calorimetric analysis, the test box was bought from Nanjing Jiancheng Bioengineering Research Institute. […] The results have been calculated as mean±SD ( x±SD) and the comparisons of the data have been done by t-test. There are ten rats in every group. GK rats control group and wistar rats group were given saline. The other groups were given test drugs. Test samples were administrated orally at the same time every day for 12 weeks. The measurements are as same as the above experiment.
# Propyl dialdehyde (MDA) = Propyl dialdehyde (MDA) in kidney tissue homogenate of GK rats; settings: different ratio experiment, oral daily 12 weeks, total 20 mg/kg per Table 3
# Method: GK rats control group (n=10); mangiferin groups (10, 30, 200 mg/kg, each group 10 rats); berberine groups (10, 20, 150 mg/kg, each group 10 rats); composition group 1[[mangiferin (10 mg/kg)+berberine (10 mg/kg)], 10 rats]; composition group 2[[mangiferin (200 mg/kg)+berberine (150 mg/kg)], 10 rats]. Wistar rats are normal control group (10 rats). GK rats control group and Wistar rats group were given saline. The other groups were given test drugs. Test samples were administrated orally at the same time every day for 12 weeks. 3.3.1 Preparation of tissue homogenate: Rats were killed by femoral artery bloodletting after administration of the rats for 12-weeks. Kidney tissue of the rats were taken, the blood of kidney tissue were washed with cooling saline (4° C.), then the remnant water was absorbed with filter paper, the kidney tissue was weighed. Per gram kidney tissue was added into 10 ml saline, which was put in homogenized machine (10,000 r/min, 10 seconds, 3rd), 10% tissue homogenate was prepared, the tissue homogenate was centrifuged (4000 r/min) for 10 minutes to get supernatant, the supernatant was saved in −20° C. for determination. 3.3.2.2 Propyl dialdehyde (MDA): MDA is determined by TBA, the test box was bought from Nanjing Jiancheng Bioengineering Research Institute. […] The results have been calculated as mean±SD ( x±SD) and the comparisons of the data have been done by t-test. There are ten rats in every group. GK rats control group and wistar rats group were given saline. The other groups were given test drugs. Test samples were administrated orally at the same time every day for 12 weeks. The measurements are as same as the above experiment.
Compound,GLU (diabetic GK rats) [mmol/L],Lipid TC (diabetic GK rats) [mmol/L],Lipid TG (diabetic GK rats) [mmol/L],AR activity of lens NADH (0.1 mmol/L) (aldose reductase (AR)),AR activity of lens NADPH (0.1 mmol/L) (aldose reductase (AR)),Measurements about oxidation SOD [1] [U/mg pro],Measurements about oxidation MDA (Propyl dialdehyde (MDA)) [nmol/mg pro]
O=c1c2cc(O)c(O)cc2oc2cc(O)c(C3OC(CO)C(O)C(O)C3O)c(O)c12 (centres unmarked) [Composition A],14.11 ± 2.03,3.26 ± 0.26,2.79 ± 0.30,1.97 ± 0.46,3.11 ± 0.56,168.26 ± 13.50,3.43 ± 0.89
COc1ccc2cc3[n+](cc2c1OC)CCc1cc2c(cc1-3)OCO2 [Composition H],12.34 ± 2.09,3.33 ± 0.26,2.91 ± 0.09,1.39 ± 0.53,2.48 ± 0.58,171.10 ± 13.81,3.52 ± 0.77
